Data as given in US12162895B2, “DNA polymerase theta inhibitor for treatment of cancer” (Breakpoint Therapeutics GmbH, priority 2023, dated 2024).

Biological target: T1, Polθ (Homo sapiens, UniProt O75417)
T1 construct: a truncated Pole protein (Pole-Hel containing the helicase domain (67-894))
Assay: Polθ ATPase assay (Biological Assay 1, ADP-Glo luminescence)
Type: biochemical
Conditions: truncated Polθ protein containing the helicase domain (67-894), ssDNA oligo, ATP, in vitro
Description: The Pole ATPase assay was used to evaluate inhibitors of Pole ATPase activity, in vitro. Experiments were performed using a truncated Pole protein (Pole-Hel containing the helicase domain (67-894), ATP and a DNA single strand Oligo (5′-CTGTCCTGCATGATG-3′) in the Pole assay buffer (20 mM Tris-HCl (pH 8.8), MgCl2 5 mM, tween20 0.01%, NP40 0.01%, BSA 0.01%, DTT 1 mM). 2 μL of assay buffer containing Pole-Hel protein (0.5 nM) and DNA substrate (500 nM) was transferred into assay ready plates, containing 0.04 μL of compounds diluted in DMSO. After a 30 minutes incubation at 23° C. in the dark, the reaction was triggered by adding 2 μL of ATP (60 μM), in assay buffer. After 60 minutes at 23° C., 4 μl of ADP-Glo™ Reagent (Glo 1) was added followed by 40 minutes of incubation, then 8 μl of ADP-Glo™ kinase Detection Reagent (Glo 2) followed by 60 minutes of incubation at 23° C. Luminescence was then measured using Tecan F200 infinite plate reader. Raw data were analysed using GeneData to generate IC50 values.
The Pole ATPase assay described in Biological Assay 1 above was used to evaluate inhibitors of Pole ATPase activity for the compounds described in the Experimental Part B above, in vitro.

T1 sequence (O75417 67-894): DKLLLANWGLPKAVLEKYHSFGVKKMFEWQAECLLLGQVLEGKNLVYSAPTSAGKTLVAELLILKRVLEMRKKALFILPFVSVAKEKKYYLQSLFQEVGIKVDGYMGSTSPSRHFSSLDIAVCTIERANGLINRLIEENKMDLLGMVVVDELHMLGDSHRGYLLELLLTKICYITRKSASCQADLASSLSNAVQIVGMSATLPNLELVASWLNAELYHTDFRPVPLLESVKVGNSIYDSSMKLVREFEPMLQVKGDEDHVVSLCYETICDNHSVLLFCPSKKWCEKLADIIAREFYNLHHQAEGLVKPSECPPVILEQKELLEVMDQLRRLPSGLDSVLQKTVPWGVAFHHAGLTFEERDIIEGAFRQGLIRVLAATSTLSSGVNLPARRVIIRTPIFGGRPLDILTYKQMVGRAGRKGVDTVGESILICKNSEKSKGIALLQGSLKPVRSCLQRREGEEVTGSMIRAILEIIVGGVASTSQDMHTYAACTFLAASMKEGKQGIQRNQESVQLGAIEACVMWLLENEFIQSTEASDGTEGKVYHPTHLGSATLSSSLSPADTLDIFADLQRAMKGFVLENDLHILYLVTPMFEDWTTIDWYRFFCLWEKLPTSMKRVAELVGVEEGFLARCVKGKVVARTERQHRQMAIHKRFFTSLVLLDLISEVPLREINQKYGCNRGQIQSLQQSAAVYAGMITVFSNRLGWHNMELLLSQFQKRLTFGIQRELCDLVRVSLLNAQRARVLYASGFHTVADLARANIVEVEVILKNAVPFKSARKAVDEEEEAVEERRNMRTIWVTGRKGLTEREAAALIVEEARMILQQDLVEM

With “5′-methoxy-2′,6-dimethyl-N-[5-(morpholin-4-yl)-[1,3]thiazolo[5,4-d]pyrimidin-2-yl]-[4,4′-bipyridine]-3-carboxamide [Example 92]” the IC50 was under 100 nM.
